Tests used:
NAMPT = NAMPT (Homo sapiens, UniProt P43490); test: Time-Resolved Fluorescence Resonance Energy Transfer (TR-FRET) Binding Assay of NAMPT with PRPP; conditions: 2 nM NAMPT, 2 nM probe, 200 uM PRPP and 2.5 mM ATP, equilibrated 16 hours
Procedure, shortened: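 Binding measured by TR-FRET after a 16-hour equilibration meant to permit enzymatic compound modification. Substrates present at 200 uM PRPP and 2.5 mM ATP, with 2 nM enzyme, 2 nM probe, 1 nM Tb-anti-His antibody and 2% DMSO final.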

[1] = target: NAMPT (human, recombinant, C-terminally His-tagged) (Homo sapiens, UniProt P43490); test: Time-Resolved Fluorescence Resonance Energy Transfer (TR-FRET) Binding Assay of NAMPT; conditions: 6.8 nM NAMPT, 200 nM probe, equilibrated 3 hours, absence of substrates
Chain of NAMPT (human, recombinant, C-terminally His-tagged) (P43490 whole entry): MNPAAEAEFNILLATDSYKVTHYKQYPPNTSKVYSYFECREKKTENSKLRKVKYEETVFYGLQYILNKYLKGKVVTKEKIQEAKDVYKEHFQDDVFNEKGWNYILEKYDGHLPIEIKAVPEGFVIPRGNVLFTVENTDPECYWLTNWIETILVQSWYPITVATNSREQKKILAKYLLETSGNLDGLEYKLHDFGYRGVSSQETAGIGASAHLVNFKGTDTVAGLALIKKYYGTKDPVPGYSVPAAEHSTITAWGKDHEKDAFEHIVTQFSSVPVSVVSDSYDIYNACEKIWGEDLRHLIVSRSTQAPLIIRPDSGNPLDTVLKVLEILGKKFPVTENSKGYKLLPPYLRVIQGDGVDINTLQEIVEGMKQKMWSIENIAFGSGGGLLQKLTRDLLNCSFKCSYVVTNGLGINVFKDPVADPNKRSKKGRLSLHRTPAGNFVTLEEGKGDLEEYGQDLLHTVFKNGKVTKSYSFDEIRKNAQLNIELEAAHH
Procedure, shortened: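 Probe displacement measured by TR-FRET (Ex 337 nm; 520/495 nm ratio) after 3 h room-temperature equilibration of compound with 6.8 nM His-tagged human NAMPT, 1 nM Tb-anti-His antibody and 200 nM Oregon Green 488 nicotinamide-site probe, pH 7.5 HEPES buffer, 2% DMSO. Control-normalized data fit four-parameter logistic for IC50.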

PC3 cells = test: NAMPT Cell Proliferation Assay (Cell Titer Glo; also performed in the presence of 0.3 mM nicotinamide mononucleotide); format: cell-based; conditions: 5 days incubation, cell viability by Cell Titer Glo
Method: NAMPT Cell Proliferation Assay
PC3 cells were seeded in 96-well black plates (Corning #3904) at 500 cells/well in 90 μl of RPMI media containing 10% heat-inactivated FBS and incubated overnight at 37° C. and 5% CO2 to allow cells to attach to wells. The following day, test compounds were serially diluted in neat DMSO to 1000× final concentrations prior to dilution with RPMI media to 10× and 1% DMSO. Ten μL of the 10× compounds were then transferred to wells containing cells to produce a dose response of 10-fold dilutions from 10 μM to 1×10^−5 μM. Cells were incubated for 5 days at 37° C. and 5% CO2, then cell viability was measured using Cell Titer Glo reagent (Promega #G7571). Percent inhibition values were calculated and fitted to a sigmoidal dose response curves using Assay Explorer software to determine IC50s.

Chain of NAMPT (P43490 whole entry): as above

Row | IC50 (NAMPT) [nM] | IC50 [1] [nM] | IC50 (PC3 cells) [nM] | IC50 (PC3 cells; Homo sapiens, PC-3, 120 h) [nM] | Structure (SMILES)
1 | 0.633 | 16.6 | – | – | Cc1cc(C)cc(CC(=O)N2CCC(c3ccc(NC(=O)C4CN(c5cccnn5)C4)cc3)CC2)c1 [Example 372, N-(4-{1-[(3,5-dimethylphenyl)acetyl]piperidin-4-yl}phenyl)-1-(pyridazin-3-yl)azetidine-3-carboxamide]
2 | 0.576 | 22.4 | – | – | O=C(Nc1ccc(C2CCN(C(=O)Cc3cc(F)ccc3F)CC2)cc1)C1CN(c2cccnn2)C1 [Example 373, N-(4-{1-[(2,5-difluorophenyl)acetyl]piperidin-4-yl}phenyl)-1-(pyridazin-3-yl)azetidine-3-carboxamide]
3 | 0.973 | 23.9 | – | – | O=C(Nc1ccc(C2CCN(C(=O)Cc3ccc(Cl)c(Cl)c3)CC2)cc1)C1CN(c2cccnn2)C1 [Example 374, N-(4-{1-[(3,4-dichlorophenyl)acetyl]piperidin-4-yl}phenyl)-1-(pyridazin-3-yl)azetidine-3-carboxamide]
4 | 0.679 | 6.72 | – | – | O=C(Nc1ccc(C2CCN(C(=O)c3ccoc3)CC2)cc1)C1CN(c2cccnn2)C1 [Example 375, N-{4-[1-(furan-3-ylcarbonyl)piperidin-4-yl]phenyl}-1-(pyridazin-3-yl)azetidine-3-carboxamide]
5 | 0.468 | 3.22 | – | – | O=C(Nc1ccc(C2CCN(C(=O)c3cccs3)CC2)cc1)C1CN(c2cccnn2)C1 [Example 376, 1-(pyridazin-3-yl)-N-{4-[1-(thiophen-2-ylcarbonyl)piperidin-4-yl]phenyl}azetidine-3-carboxamide]
6 | 0.632 | 16.2 | – | – | Cc1ccc(C(=O)N2CCC(c3ccc(NC(=O)C4CN(c5cccnn5)C4)cc3)CC2)s1 [Example 377, N-(4-{1-[(5-methylthiophen-2-yl)carbonyl]piperidin-4-yl}phenyl)-1-(pyridazin-3-yl)azetidine-3-carboxamide]
7 | 0.632 | 77.1 | – | – | Cc1cnc(C(=O)N2CCC(c3ccc(NC(=O)C4CN(c5cccnn5)C4)cc3)CC2)cn1 [Example 378, N-(4-{1-[(5-methylpyrazin-2-yl)carbonyl]piperidin-4-yl}phenyl)-1-(pyridazin-3-yl)azetidine-3-carboxamide]
8 | 0.432 | 15.9 | – | – | CC1(C(=O)N2CCC(c3ccc(NC(=O)C4CN(c5cccnn5)C4)cc3)CC2)CC1 [Example 379, N-(4-{1-[(1-methylcyclopropyl)carbonyl]piperidin-4-yl}phenyl)-1-(pyridazin-3-yl)azetidine-3-carboxamide]
9 | 0.883 | 109 | – | – | CCOCCC(=O)N1CCC(c2ccc(NC(=O)C3CN(c4cccnn4)C3)cc2)CC1 [Example 380, N-{4-[1-(3-ethoxypropanoyl)piperidin-4-yl]phenyl}-1-(pyridazin-3-yl)azetidine-3-carboxamide]
10 | 1.13 | 15.1 | – | – | O=C(Nc1ccc(C2CCN(C(=O)C3(c4ccccc4)CC3)CC2)cc1)C1CN(c2cccnn2)C1 [Example 381, N-(4-{1-[(1-phenylcyclopropyl)carbonyl]piperidin-4-yl}phenyl)-1-(pyridazin-3-yl)azetidine-3-carboxamide]
11 | 0.657 | 65.8 | – | – | O=C(Nc1ccc(C2CCN(C(=O)CSc3ncccn3)CC2)cc1)C1CN(c2cccnn2)C1 [Example 382, 1-(pyridazin-3-yl)-N-(4-{1-[(pyrimidin-2-ylsulfanyl)acetyl]piperidin-4-yl}phenyl)azetidine-3-carboxamide]
12 | 0.859 | 103 | – | – | CC(=O)N1CCC(C(=O)N2CCC(c3ccc(NC(=O)C4CN(c5cccnn5)C4)cc3)CC2)CC1 [Example 383, N-(4-{1-[(1-acetylpiperidin-4-yl)carbonyl]piperidin-4-yl}phenyl)-1-(pyridazin-3-yl)azetidine-3-carboxamide]
13 | 0.497 | 28.8 | – | – | O=C(Nc1ccc(C2CCN(C(=O)Cc3cc(F)cc(F)c3)CC2)cc1)C1CN(c2cccnn2)C1 [Example 384, N-(4-{1-[(3,5-difluorophenyl)acetyl]piperidin-4-yl}phenyl)-1-(pyridazin-3-yl)azetidine-3-carboxamide]
14 | 1.24 | 55.1 | – | – | CC(=O)N[C@@H](CC(C)C)C(=O)N1CCC(c2ccc(NC(=O)C3CN(c4cccnn4)C3)cc2)CC1 [Example 385, N-{4-[1-(N-acetyl-L-leucyl)piperidin-4-yl]phenyl}-1-(pyridazin-3-yl)azetidine-3-carboxamide]
15 | 17.3 | 26.2 | – | – | CC(C)C(=O)N1CCC(c2ccc(NC(=O)C3CN(c4ccnnc4)C3)cc2)CC1 [Example 528, N-{4-[1-(2-methylpropanoyl)piperidin-4-yl]phenyl}-1-(pyridazin-4-yl)azetidine-3-carboxamide]
16 | – | – | 7.48 | – | Cc1ccccc1C(=O)N1CC(c2ccc(NC(=O)[C@H]3CCN(c4cccnn4)C3)cc2)C1 [Example 791]
17 | – | – | – | 675 | CC1(Cn2cc(-c3ccc(NC(=O)C4CN(c5cccnn5)C4)cc3)cn2)CCNCC1 [Example 873, N-(4-{1-[(4-methylpiperidin-4-yl)methyl]-1H-pyrazol-4-yl}phenyl)-1-(pyridazin-3-yl)azetidine-3-carboxamide]
18 | – | – | – | 71.1 | Cn1nc(C(F)(F)F)cc1-c1ccc(NC(=O)C2CN(c3cccnn3)C2)cc1 [Example 874, N-{4-[1-methyl-3-(trifluoromethyl)-1H-pyrazol-5-yl]phenyl}-1-(pyridazin-3-yl)azetidine-3-carboxamide]
19 | – | – | – | > 10000 | CC(C)(C)Cn1cc(-c2ccc(NC(=O)C3CN(c4ccc(Cl)nn4)C3)cc2)cn1 [Example 875, 1-(6-chloropyridazin-3-yl)-N-{4-[1-(2,2-dimethylpropyl)-1H-pyrazol-4-yl]phenyl}azetidine-3-carboxamide]
20 | – | – | – | 29.2 | Cc1ccc(N2CC(C(=O)Nc3ccc(C4CCN(C(=O)c5ccccc5)CC4)cc3)C2)cn1 [Example 876, N-[4-(1-benzoylpiperidin-4-yl)phenyl]-1-(6-methylpyridin-3-yl)azetidine-3-carboxamide]
21 | – | – | – | 29.6 | CC1(Cn2cc(-c3ccc(NC(=O)C4CN(c5cccnc5)C4)cc3)cn2)CCNCC1 [Example 877, N-(4-{1-[(4-methylpiperidin-4-yl)methyl]-1H-pyrazol-4-yl}phenyl)-1-(pyridin-3-yl)azetidine-3-carboxamide]
22 | – | – | – | 70.6 | Cc1ccc(N2CC(C(=O)Nc3ccc(-c4cnn(CC(C)(C)C)c4)cc3)C2)nn1 [Example 878, N-{4-[1-(2,2-dimethylpropyl)-1H-pyrazol-4-yl]phenyl}-1-(6-methylpyridazin-3-yl)azetidine-3-carboxamide]
23 | – | – | – | 5.83 | O=C(Nc1ccc(C2CCN(C(=O)c3cccc(F)c3)CC2)c(F)c1)C1CN(c2cccnn2)C1 [Example 879, N-{3-fluoro-4-[1-(3-fluorobenzoyl)piperidin-4-yl]phenyl}-1-(pyridazin-3-yl)azetidine-3-carboxamide]
24 | – | – | – | 15.4 | CC(C)C(=O)N1CCC(c2ccc(NC(=O)C3CN(c4cccnn4)C3)cc2F)CC1 [Example 880, N-{3-fluoro-4-[1-(2-methylpropanoyl)piperidin-4-yl]phenyl}-1-(pyridazin-3-yl)azetidine-3-carboxamide]
25 | – | – | – | 8.18 | O=C(Nc1ccc(C2CCN(C(=O)CC(F)(F)F)CC2)c(F)c1)C1CN(c2cccnn2)C1 [Example 881, N-{3-fluoro-4-[1-(3,3,3-trifluoropropanoyl)piperidin-4-yl]phenyl}-1-(pyridazin-3-yl)azetidine-3-carboxamide]
26 | – | – | – | 6.43 | CC(C)(C)CC(=O)N1CCC(c2ccc(NC(=O)C3CN(c4cccnn4)C3)cc2F)CC1 [Example 882, N-{4-[1-(3,3-dimethylbutanoyl)piperidin-4-yl]-3-fluorophenyl}-1-(pyridazin-3-yl)azetidine-3-carboxamide]
27 | – | – | – | 30.9 | O=C(Nc1ccc(C2CCN(C(=O)CCC(F)(F)F)CC2)c(F)c1)C1CN(c2cccnn2)C1 [Example 883, N-{3-fluoro-4-[1-(4,4,4-trifluorobutanoyl)piperidin-4-yl]phenyl}-1-(pyridazin-3-yl)azetidine-3-carboxamide]
28 | – | – | – | 2.75 | O=C(Nc1ccc(C2CCN(C(=O)c3ccccc3)CC2)c(F)c1)C1CN(c2cccnn2)C1 [Example 884, N-[4-(1-benzoylpiperidin-4-yl)-3-fluorophenyl]-1-(pyridazin-3-yl)azetidine-3-carboxamide]
29 | – | – | – | 1.63 | O=C(Nc1ccc(C2CCN(C(=O)c3ccccc3F)CC2)c(F)c1)C1CN(c2cccnn2)C1 [Example 885, N-{3-fluoro-4-[1-(2-fluorobenzoyl)piperidin-4-yl]phenyl}-1-(pyridazin-3-yl)azetidine-3-carboxamide]
30 | – | – | – | 7.66 | CC(C)(C)C(=O)N1CCC(c2ccc(NC(=O)C3CN(c4cccnn4)C3)cc2F)CC1 [Example 886, N-{4-[1-(2,2-dimethylpropanoyl)piperidin-4-yl]-3-fluorophenyl}-1-(pyridazin-3-yl)azetidine-3-carboxamide]
